Reference: patent publication US4925650A, “Technetium -99m complex for examining the renal function” (Mallinckrodt, Inc., priority 1988, dated 1990)

Tests used:
[1] = cited from earlier work; for mode of elimination / renal secretion (in words): in vivo
[2] = Liver accumulation in a human being after 40 minutes; format: in vivo; conditions: 0.5 mCi intravenously
Procedure: The liver accumulation is determined after 40 minutes. For the tested Tc99m-LL-isomer it amounts to 2.9%, for Tc99m-MAG3 it amounts to 4.0% of the injected dose.

For O=C(O)CNC(=O)c1ccccc1[131I] [iodo-131-Hippuran], the “mode of elimination / renal secretion (in words)” value [1] is given as “secreted actively tubularly”.

For “Tc99m-diethylene triamine pentaacetic acid [DTPA]”, the clearance ([1]; chelate of DTPA) is given as 100 ml of blood plasma per minute and the “mode of elimination / renal secretion (in words)” value [1] is given as “eliminated entirely or substantially entirely by glomerular filtration”.

For “Tc-99m-mercaptoacetyltriglycine [Tc99m-MAG3]”, the liver accumulation [2] is given as 4.0 % of the injected dose and the “mode of elimination / renal secretion (in words)” value [1] is given as “secreted by the kidneys selectively and approximately equally rapidly as iodo-Hippuran”.
